Reference: ChEMBL document CHEMBL4414648, “Novel Benzohydroxamate-Based Potent and Selective Histone Deacetylase 6 (HDAC6) Inhibitors Bearing a Pentaheterocyclic Scaffold: Design, Synthesis, and Biological Evaluation” (J Med Chem, 2019)

Tests used:
[1] = molecular target: T1, Protein deacetylase HDAC6 (Homo sapiens, UniProt Q9UBN7); assay: biochemical
T1 sequence (Q9UBN7 whole entry): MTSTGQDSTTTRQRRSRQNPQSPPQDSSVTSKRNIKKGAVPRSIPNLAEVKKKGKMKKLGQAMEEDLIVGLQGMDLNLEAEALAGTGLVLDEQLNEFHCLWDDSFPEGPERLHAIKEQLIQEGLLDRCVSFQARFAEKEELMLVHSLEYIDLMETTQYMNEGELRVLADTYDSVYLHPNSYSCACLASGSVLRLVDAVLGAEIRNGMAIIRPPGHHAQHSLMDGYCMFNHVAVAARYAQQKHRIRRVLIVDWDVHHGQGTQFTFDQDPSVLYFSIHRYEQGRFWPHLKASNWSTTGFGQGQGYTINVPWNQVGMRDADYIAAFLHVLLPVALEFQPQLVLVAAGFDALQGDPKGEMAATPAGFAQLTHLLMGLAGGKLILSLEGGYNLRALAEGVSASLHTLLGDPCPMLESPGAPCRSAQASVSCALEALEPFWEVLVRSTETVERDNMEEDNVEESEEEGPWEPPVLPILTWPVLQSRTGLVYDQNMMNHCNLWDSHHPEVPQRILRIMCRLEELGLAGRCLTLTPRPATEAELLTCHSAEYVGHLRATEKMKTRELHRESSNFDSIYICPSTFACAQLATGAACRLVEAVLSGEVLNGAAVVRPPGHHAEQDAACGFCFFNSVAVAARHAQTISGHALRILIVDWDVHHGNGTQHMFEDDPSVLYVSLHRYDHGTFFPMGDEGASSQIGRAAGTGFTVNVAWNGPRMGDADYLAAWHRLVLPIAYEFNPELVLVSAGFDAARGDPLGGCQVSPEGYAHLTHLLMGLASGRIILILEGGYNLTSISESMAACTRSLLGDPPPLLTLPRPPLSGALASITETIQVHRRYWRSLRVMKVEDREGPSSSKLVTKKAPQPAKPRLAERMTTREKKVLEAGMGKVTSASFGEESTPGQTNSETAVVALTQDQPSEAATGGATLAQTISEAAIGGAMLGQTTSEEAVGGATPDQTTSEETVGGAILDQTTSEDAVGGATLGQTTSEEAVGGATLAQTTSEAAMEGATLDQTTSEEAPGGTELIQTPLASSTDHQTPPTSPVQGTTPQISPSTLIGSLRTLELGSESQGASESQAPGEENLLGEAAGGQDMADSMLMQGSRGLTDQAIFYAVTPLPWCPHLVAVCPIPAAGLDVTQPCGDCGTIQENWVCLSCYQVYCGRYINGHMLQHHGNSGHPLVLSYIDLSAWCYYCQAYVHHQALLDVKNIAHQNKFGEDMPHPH

[2] = Selectivity ratio of IC50 for C-terminal His-tagged human HDAC8 expressed in baculovirus infected sf9 insect cells to IC50 for human N-terminal GST-tagged HDAC6 expressed in baculovirus infected sf9 insect cells
[3] = Stability in human liver S9 fraction assessed as parent compound remaining at 5 uM after 90 mins in presence of NADPH by LC-MS/MS analysis; type: ADME, subcellular; settings: read-out: Stability
Histone deacetylase = assay: Inhibition of HDAC in human 697 cells assessed as increase in H3 acetylation at 1000 nM incubated for 16 hrs by ELISA; type: cell-based; settings: human, 697, 16 h, 1 µM
[4] = Selectivity ratio of IC50 for N-terminal Flag-tagged human HDAC10 (2 to 631 residues) expressed in baculovirus infected sf9 insect cells to IC50 for human N-terminal GST-tagged HDAC6 expressed in baculovirus infected sf9 insect cells
[5] = Selectivity ratio of IC50 for N-terminal GST-tagged human HDAC7 (518 to end residues) expressed in baculovirus infected sf9 insect cells to IC50 for human N-terminal GST-tagged HDAC6 expressed in baculovirus infected sf9 insect cells
[6] = Stability in rat liver S9 fraction assessed as parent compound remaining at 5 uM after 90 mins in presence of NADPH by LC-MS/MS analysis; type: ADME, subcellular; settings: read-out: Stability
[7] = Selectivity ratio of IC50 for C-terminal GST-tagged human HDAC5 to IC50 for human N-terminal GST-tagged HDAC6 expressed in baculovirus infected sf9 insect cells
PBMC = assay: Cytotoxicity against human PBMC cells after 72 hrs by CellTiter 96 aqueous one solution assay; type: cell-based
[8] = Stability in rat plasma assessed as parent compound remaining at 100 uM after 4 hrs by LC-MS/MS analysis; type: ADME, cell-free; settings: read-out: Stability
[9] = Selectivity ratio of IC50 for N-terminal His-tagged human HDAC11 expressed in baculovirus expression system to IC50 for human N-terminal GST-tagged HDAC6 expressed in baculovirus infected sf9 insect cells
[10] = Stability in human plasma assessed as parent compound remaining at 100 uM after 4 hrs by LC-MS/MS analysis; type: ADME, cell-free; settings: read-out: Stability
[11] = Selectivity ratio of IC50 for C-terminal His-tagged human HDAC9 (604 to 1066 residues) expressed in baculovirus infected sf9 insect cells to IC50 for human N-terminal GST-tagged HDAC6 expressed in baculovirus infected sf9 insect cells
697 = assay: Cytotoxicity against human 697 cells after 48 hrs by CellTiter 96 aqueous one solution assay; type: cell-based; settings: Homo sapiens, 697, 48 h
[12] = Selectivity ratio of IC50 for human HDAC4 expressed in baculovirus infected sf9 insect cells to IC50 for human N-terminal GST-tagged HDAC6 expressed in baculovirus infected sf9 insect cells
[13] = molecular target: Histone deacetylase 3/Nuclear receptor corepressor 2 (HDAC3/NCoR2) (Homo sapiens, UniProt O15379); assay: Inhibition of C-terminal His-tagged human HDAC3 (1 to 428 residues)/N-terminal GST tagged human NCOR2 (395 to 489) expressed in baculovirus infected sf9 insect cells pretreated with compound followed by Fluor de Lys deacetylase substrate addition by fluorescence method
Chain of Histone deacetylase 3/Nuclear receptor corepressor 2 (HDAC3/NCoR2) (O15379 whole entry, the tested form may be a part): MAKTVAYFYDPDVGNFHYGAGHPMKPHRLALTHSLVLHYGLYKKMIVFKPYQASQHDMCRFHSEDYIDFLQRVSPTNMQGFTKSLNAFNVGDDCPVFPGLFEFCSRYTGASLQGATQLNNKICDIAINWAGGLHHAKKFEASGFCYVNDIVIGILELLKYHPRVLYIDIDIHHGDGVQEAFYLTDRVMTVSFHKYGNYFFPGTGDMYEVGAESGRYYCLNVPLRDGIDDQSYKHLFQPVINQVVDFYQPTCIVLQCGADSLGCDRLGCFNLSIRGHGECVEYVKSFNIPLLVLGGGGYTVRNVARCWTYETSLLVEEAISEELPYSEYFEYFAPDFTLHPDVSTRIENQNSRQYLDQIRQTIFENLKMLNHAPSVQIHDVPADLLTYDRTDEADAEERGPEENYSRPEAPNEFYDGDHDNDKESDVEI
Chain of Histone deacetylase 3/Nuclear receptor corepressor 2 (HDAC3/NCoR2) (Q9Y618 whole entry, further chain, the tested form may be a part): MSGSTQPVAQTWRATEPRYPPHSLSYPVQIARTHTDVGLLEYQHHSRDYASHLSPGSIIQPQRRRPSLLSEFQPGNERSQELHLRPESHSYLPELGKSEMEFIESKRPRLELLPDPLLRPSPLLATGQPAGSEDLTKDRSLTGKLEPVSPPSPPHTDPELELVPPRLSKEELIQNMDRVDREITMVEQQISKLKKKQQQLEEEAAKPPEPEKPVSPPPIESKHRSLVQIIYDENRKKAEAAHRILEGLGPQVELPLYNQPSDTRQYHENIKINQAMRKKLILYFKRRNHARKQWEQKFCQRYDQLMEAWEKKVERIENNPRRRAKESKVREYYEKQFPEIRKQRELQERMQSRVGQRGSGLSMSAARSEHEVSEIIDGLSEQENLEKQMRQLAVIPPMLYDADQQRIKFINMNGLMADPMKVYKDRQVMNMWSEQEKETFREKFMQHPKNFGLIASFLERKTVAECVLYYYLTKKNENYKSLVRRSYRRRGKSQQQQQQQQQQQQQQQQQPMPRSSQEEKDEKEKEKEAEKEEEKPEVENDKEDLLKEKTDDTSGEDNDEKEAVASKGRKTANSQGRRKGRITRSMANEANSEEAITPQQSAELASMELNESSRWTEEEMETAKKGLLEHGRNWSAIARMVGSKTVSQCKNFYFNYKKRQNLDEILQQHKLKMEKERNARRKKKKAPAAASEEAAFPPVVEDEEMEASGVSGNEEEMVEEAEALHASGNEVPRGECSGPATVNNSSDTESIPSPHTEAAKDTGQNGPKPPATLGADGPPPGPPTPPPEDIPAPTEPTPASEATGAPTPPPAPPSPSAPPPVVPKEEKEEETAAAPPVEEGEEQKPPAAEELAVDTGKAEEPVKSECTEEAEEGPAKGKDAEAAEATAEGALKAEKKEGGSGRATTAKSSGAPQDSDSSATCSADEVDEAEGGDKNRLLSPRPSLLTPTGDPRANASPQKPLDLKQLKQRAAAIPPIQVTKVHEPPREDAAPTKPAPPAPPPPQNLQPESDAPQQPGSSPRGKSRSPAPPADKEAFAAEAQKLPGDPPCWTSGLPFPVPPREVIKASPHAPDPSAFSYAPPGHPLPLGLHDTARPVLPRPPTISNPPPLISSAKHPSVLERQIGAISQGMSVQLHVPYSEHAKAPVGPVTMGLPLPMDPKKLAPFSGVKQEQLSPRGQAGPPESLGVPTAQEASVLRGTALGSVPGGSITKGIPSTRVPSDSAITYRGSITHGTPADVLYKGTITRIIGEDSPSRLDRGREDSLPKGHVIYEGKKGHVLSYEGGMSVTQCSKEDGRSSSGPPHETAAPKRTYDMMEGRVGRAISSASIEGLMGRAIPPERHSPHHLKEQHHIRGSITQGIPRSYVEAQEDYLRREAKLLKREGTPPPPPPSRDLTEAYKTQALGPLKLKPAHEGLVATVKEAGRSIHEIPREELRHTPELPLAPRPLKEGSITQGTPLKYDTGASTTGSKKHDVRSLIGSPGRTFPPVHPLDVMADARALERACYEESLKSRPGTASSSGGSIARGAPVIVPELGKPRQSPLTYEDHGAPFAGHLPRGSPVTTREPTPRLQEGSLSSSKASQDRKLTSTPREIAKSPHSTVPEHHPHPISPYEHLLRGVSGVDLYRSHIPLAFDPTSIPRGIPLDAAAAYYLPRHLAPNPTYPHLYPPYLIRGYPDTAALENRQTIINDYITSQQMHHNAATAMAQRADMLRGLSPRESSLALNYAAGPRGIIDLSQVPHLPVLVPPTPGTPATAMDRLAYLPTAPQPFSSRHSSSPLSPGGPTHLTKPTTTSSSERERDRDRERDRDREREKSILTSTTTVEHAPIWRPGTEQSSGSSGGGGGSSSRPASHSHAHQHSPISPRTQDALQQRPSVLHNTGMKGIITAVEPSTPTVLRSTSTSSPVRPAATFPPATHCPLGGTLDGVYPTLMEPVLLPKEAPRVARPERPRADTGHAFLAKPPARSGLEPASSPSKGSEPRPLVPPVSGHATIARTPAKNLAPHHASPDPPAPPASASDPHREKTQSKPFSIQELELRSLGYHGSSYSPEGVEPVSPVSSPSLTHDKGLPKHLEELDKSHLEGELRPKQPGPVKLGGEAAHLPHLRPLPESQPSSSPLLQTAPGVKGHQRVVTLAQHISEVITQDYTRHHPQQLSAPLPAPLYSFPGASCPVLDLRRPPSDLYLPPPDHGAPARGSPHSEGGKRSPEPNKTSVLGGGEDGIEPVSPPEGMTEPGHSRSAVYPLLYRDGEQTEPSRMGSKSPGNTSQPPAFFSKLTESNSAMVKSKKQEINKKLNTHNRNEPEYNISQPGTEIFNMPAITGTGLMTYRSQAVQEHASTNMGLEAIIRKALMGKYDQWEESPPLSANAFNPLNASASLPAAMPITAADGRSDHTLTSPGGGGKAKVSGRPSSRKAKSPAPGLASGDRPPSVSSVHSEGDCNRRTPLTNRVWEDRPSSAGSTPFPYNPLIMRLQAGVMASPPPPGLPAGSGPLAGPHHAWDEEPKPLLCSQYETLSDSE

| IC50 [1] [nM] | remaining at […], 5 µM [3] [%] | inhibition (INH) (Histone deacetylase) | remaining at […], 5 µM [6] [%] | remaining at 4 h, 100 µM [8] [%] | remaining at 4 h, 100 µM [10] [%] | IC50 [13] [µM] | SMILES | Ratio IC50 [2] | Ratio IC50 [4] | Ratio IC50 [5] | Ratio IC50 [7] | IC50 (PBMC) [nM] | Ratio IC50 [9] | Ratio IC50 [11] | IC50 697 [nM] | Ratio IC50 [12] |
| --- | --- | --- | --- | --- | --- | --- | --- | --- | --- | --- | --- | --- | --- | --- | --- | --- |
| 6 | 76 | Active | 30 | 80 | 92 | – | Cc1cc(-c2nnc(Sc3c(F)cc(C(=O)NO)cc3F)n2C)nn1C | 19 | 497 | 48 | 42 | > 1000 | 294 | 24 | > 1000 | 48 |
| 1390 | – | – | – | – | – | 18.4 | Nc1ccc(C(=O)NO)cc1 | – | – | – | – | – | – | – | – | – |
| 10 | 78 | Active | 55 | 85 | 91 | – | Cn1c(Sc2c(F)cc(C(=O)NO)cc2F)nnc1-c1cccc(CN2CCCCCC2)c1 | 41 | 310 | 79 | 82 | > 1000 | 169 | 23 | > 1000 | 86 |
